In BindingDB's records for doi:10.1021/acs.jmedchem.9b00061 (Ajou University, 2019) one finds Kd data, which are given here for 2 compounds.

Where a SMILES comes first, the peptide text is derived from it. Bridges are numbered along the chain shown (N, C = ends).

The assay concerns the target Toll-like receptor 4 (Homo sapiens, UniProt O00206). The assay can be described thus: Binding affinity to recombinant human TLR4 assessed as dissociation constant up to 200 uM by surface plasmon resonance analysis.

Chain of Toll-like receptor 4 (O00206 whole entry): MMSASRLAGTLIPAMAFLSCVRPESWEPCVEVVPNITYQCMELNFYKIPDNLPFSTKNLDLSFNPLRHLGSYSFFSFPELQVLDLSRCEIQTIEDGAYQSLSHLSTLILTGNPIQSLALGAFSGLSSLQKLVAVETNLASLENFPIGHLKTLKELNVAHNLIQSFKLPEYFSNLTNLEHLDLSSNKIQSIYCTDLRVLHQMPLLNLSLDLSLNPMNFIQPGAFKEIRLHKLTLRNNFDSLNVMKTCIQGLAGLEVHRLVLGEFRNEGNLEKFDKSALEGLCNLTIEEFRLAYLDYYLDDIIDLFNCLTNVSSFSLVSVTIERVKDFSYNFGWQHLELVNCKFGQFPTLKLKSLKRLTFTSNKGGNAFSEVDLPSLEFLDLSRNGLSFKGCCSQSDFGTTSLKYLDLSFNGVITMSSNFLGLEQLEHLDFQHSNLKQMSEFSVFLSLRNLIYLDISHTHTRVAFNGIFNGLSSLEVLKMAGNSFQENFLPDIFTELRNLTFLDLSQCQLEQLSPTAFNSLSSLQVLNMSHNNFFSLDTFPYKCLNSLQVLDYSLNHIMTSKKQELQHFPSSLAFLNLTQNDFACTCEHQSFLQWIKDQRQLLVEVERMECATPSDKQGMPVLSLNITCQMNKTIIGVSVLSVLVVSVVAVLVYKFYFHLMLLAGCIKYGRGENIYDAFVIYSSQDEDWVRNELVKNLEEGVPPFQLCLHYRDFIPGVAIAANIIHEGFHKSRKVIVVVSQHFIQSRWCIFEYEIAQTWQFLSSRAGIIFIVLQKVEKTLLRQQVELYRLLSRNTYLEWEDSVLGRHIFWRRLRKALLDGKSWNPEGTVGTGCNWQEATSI

As a reminder, the Kd is the concentration at which binding is half-saturated. On to H-LGVFSSWWIKLV-OH, for which the Kd is 1.1 nM.

On to `CC[C@H](C)[C@@H]1NC(=O)[C@H](Cc2c[nH]c3ccccc23)NC(=O)[C@H](Cc2c[nH]c3ccccc23)NC(=O)[C@@H](NC(=O)[C@H](CO)NC(=O)[C@H](Cc2ccccc2)NC(=O)[C@@H](NC(=O)CNC(=O)[C@@H](N)CC(C)C)C(C)C)CC(=O)NCCCC[C@@H](C(=O)N[C@@H](CC(C)C)C(=O)N[C@H](C(=O)O)C(C)C)NC1=O` (H-LGVFSDWWIKLV-OH; lactam 6-10), for which the dissociation constant (Kd) was 1.4 nM.
